Experimental data reported in PubChem BioAssay AID256 (DTP/NCI, 2004).
Where “and” joins values, the source holds several entries; their conditions need not be identical. Equal entries are not always repeated. Inconclusive results and toxic doses are left out.

Test system: CD2F1 mice, L1210 leukemia ip, survival T/C
Experiment: NCI In Vivo Anticancer Drug Screen. Data for tumor model L1210 Leukemia (intraperitoneal) in CD2F1 (CDF1) mice
Details: higher = longer survival
How it was run: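 Each value reflects a quotient of treated over vehicle control outcomes in mice with a transplanted tumor.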

[1] = endpoint: mean survival time, dose: 100.0 mg/kg/injection, schedule: Q04DX003 (ip), vehicle: saline with Tween-80
[2] = endpoint: mean survival time, dose: 400.0 mg/kg/injection, schedule: Q04DX003 (ip), vehicle: saline with Tween-80
[3] = endpoint: mean survival time, dose: 75.0 mg/kg/injection, schedule: Q01DX001 (ip), vehicle: saline
[4] = endpoint: mean survival time, dose: 150.0 mg/kg/injection, schedule: Q01DX001 (ip), vehicle: saline
[5] = endpoint: mean survival time, dose: 300.0 mg/kg/injection, schedule: Q01DX001 (ip), vehicle: saline

NCCCNCCCCNC(=O)C(O)NC(=O)CCCCCCN=C(N)N (stereo unspecified) was tested, and the T/C (endpoint: median survival time, dose: 0.19 mg/kg/injection, schedule: Q01DX005 (iv), vehicle: saline) was 123 % of control, the T/C (endpoint: median survival time, dose: 0.39 mg/kg/injection, schedule: Q01DX009 (ip), vehicle: saline) was 185 % of control and 231 % of control and the T/C (endpoint: median survival time, dose: 0.75 mg/kg/injection, schedule: Q01DX009 (ip), vehicle: saline) was 198 % of control. For the same molecule, the T/C (endpoint: median survival time, dose: 0.78 mg/kg/injection, schedule: Q01DX005 (iv), vehicle: other) was 153 % of control, the T/C (endpoint: median survival time, dose: 0.78 mg/kg/injection, schedule: Q01DX005 (iv), vehicle: saline) was 156 % of control and the T/C (endpoint: median survival time, dose: 0.78 mg/kg/injection, schedule: Q01DX009 (ip), vehicle: other) was 213 % of control. The T/C (endpoint: median survival time, dose: 1.3 mg/kg/injection, schedule: Q01DX005 (iv), vehicle: other) was 153 % of control, the T/C (endpoint: median survival time, dose: 1.3 mg/kg/injection, schedule: Q01DX005 (iv), vehicle: saline) was 161 % of control and the T/C (endpoint: median survival time, dose: 1.5 mg/kg/injection, schedule: Q01DX009 (ip), vehicle: saline) was 220 % of control. For the same molecule, the T/C (endpoint: median survival time, dose: 1.56 mg/kg/injection, schedule: Q01DX005 (iv), vehicle: saline) was 160 % of control, the T/C (endpoint: median survival time, dose: 1.56 mg/kg/injection, schedule: Q01DX009 (ip), vehicle: other) was 213 % of control and the T/C (endpoint: median survival time, dose: 2.16 mg/kg/injection, schedule: Q01DX005 (iv), vehicle: other) was 171 % of control. The T/C (endpoint: median survival time, dose: 2.16 mg/kg/injection, schedule: Q01DX005 (iv), vehicle: saline) was 165 % of control, the T/C (endpoint: median survival time, dose: 3.0 mg/kg/injection, schedule: Q01DX009 (ip), vehicle: saline) was 220 % of control and the T/C (endpoint: median survival time, dose: 3.12 mg/kg/injection, schedule: Q01DX005 (iv), vehicle: saline) was 172 % of control. The T/C (endpoint: median survival time, dose: 3.12 mg/kg/injection, schedule: Q01DX009 (ip), vehicle: other) was 204 % of control, the T/C (endpoint: median survival time, dose: 3.6 mg/kg/injection, schedule: Q01DX005 (iv), vehicle: other) was 176 % of control and the T/C (endpoint: median survival time, dose: 3.6 mg/kg/injection, schedule: Q01DX005 (iv), vehicle: saline) was 164 % of control. The T/C (endpoint: median survival time, dose: 4.4 mg/kg/injection, schedule: Q01DX009 (ip), vehicle: saline) was 221 % of control and 225 % of control and 230 % of control, the T/C (endpoint: median survival time, dose: 4.5 mg/kg/injection, schedule: Q01DX009 (ip), vehicle: saline) was 219 % of control and the T/C (endpoint: median survival time, dose: 6.0 mg/kg/injection, schedule: Q01DX005 (iv), vehicle: other) was 175 % of control. For the same molecule, the T/C (endpoint: median survival time, dose: 6.0 mg/kg/injection, schedule: Q01DX005 (iv), vehicle: saline) was 172 % of control, the T/C (endpoint: median survival time, dose: 6.0 mg/kg/injection, schedule: Q01DX009 (ip), vehicle: saline) was 219 % of control and the T/C (endpoint: median survival time, dose: 6.25 mg/kg/injection, schedule: Q01DX005 (iv), vehicle: saline) was 430 % of control. For the same molecule, the T/C (endpoint: median survival time, dose: 6.25 mg/kg/injection, schedule: Q01DX009 (ip), vehicle: other) was 225 % of control, the T/C (endpoint: median survival time, dose: 7.88 mg/kg/injection, schedule: Q01DX005 (sc), vehicle: water) was 163 % of control and the T/C (endpoint: median survival time, dose: 10.0 mg/kg/injection, schedule: Q01DX005 (iv), vehicle: saline) was 180 % of control. For the same molecule, the T/C (endpoint: median survival time, dose: 12.0 mg/kg/injection, schedule: Q01DX009 (ip), vehicle: saline) was 223 % of control, the T/C (endpoint: median survival time, dose: 12.5 mg/kg/injection, schedule: Q01DX009 (ip), vehicle: other) was 242 % of control and the T/C (endpoint: median survival time, dose: 15.75 mg/kg/injection, schedule: Q01DX005 (sc), vehicle: water) was 173 % of control and 179 % of control. The T/C (endpoint: median survival time, dose: 25.0 mg/kg/injection, schedule: Q01DX009 (ip), vehicle: other) was 227 % of control, the T/C (endpoint: median survival time, dose: 31.5 mg/kg/injection, schedule: Q01DX005 (sc), vehicle: water) was 178 % of control and 182 % of control and the T/C (endpoint: median survival time, dose: 31.5 mg/kg/injection, schedule: Q03HX008 (sc), vehicle: water) was 164 % of control. For the same molecule, the T/C (endpoint: median survival time, dose: 37.0 mg/kg/injection, schedule: Q01DX005 (sc), vehicle: water) was 183 % of control, the T/C (endpoint: median survival time, dose: 45.0 mg/kg/injection, schedule: Q01DX005 (sc), vehicle: water) was 176 % of control and the T/C (endpoint: median survival time, dose: 150.0 micrograms per hour, schedule: Q#X X048 (sc), vehicle: water) was 182 % of control. The T/C (endpoint: median survival time, dose: 150.0 micrograms per hour, schedule: Q#X X072 (sc), vehicle: water) was 182 % of control, the T/C (endpoint: median survival time, dose: 150.0 micrograms per hour, schedule: Q#X X096 (sc), vehicle: water) was 205 % of control and the T/C (endpoint: median survival time, dose: 170.0 micrograms per hour, schedule: Q#X X048 (sc), vehicle: water) was 178 % of control. The T/C (endpoint: median survival time, dose: 170.0 micrograms per hour, schedule: Q#X X072 (sc), vehicle: water) was 200 % of control, the T/C (endpoint: median survival time, dose: 200.0 micrograms per hour, schedule: Q#X X048 (sc), vehicle: water) was 110 % of control and the T/C (endpoint: median survival time, dose: 200.0 micrograms per hour, schedule: Q#X X072 (sc), vehicle: water) was 101 % of control. The T/C (endpoint: median survival time, dose: 200.0 micrograms per hour, schedule: Q#X X096 (sc), vehicle: water) was 114 % of control, the T/C (endpoint: median survival time, dose: 207.0 micrograms per hour, schedule: Q#X X048 (sc), vehicle: water) was 168 % of control and the T/C (endpoint: median survival time, dose: 207.0 micrograms per hour, schedule: Q#X X072 (sc), vehicle: water) was 120 % of control. For the same molecule, the T/C (endpoint: median survival time, dose: 207.0 micrograms per hour, schedule: Q#X X096 (sc), vehicle: water) was 109 % of control.
In the case of C[N+]([O-])(CCO)Cc1ccccc1 (stereo unspecified), the T/C (endpoint: mean survival time, dose: 50.0 mg/kg/injection, schedule: Q01DX001 (ip), vehicle: carboxymethylcellulose (CMC)) is reported as 102 % of control, the T/C (endpoint: mean survival time, dose: 100.0 mg/kg/injection, schedule: Q01DX001 (ip), vehicle: carboxymethylcellulose (CMC)) is reported as 112 % of control and the T/C (endpoint: mean survival time, dose: 200.0 mg/kg/injection, schedule: Q01DX001 (ip), vehicle: carboxymethylcellulose (CMC)) is reported as 112 % of control. For the same molecule, the T/C (endpoint: mean survival time, dose: 400.0 mg/kg/injection, schedule: Q01DX001 (ip), vehicle: carboxymethylcellulose (CMC)) was 112 % of control.
For Nc1cc2c(cc1Br)-c1ccccc1C2Br (stereo unspecified), the T/C [1] was 94 % of control and the T/C [2] was 92 % of control.
In the case of NC1=Nc2ccccc2CS1, the T/C (endpoint: mean survival time, dose: 9.4 mg/kg/injection, schedule: Q01DX009 (ip), vehicle: saline) is reported as 95 % of control, the T/C (endpoint: mean survival time, dose: 18.8 mg/kg/injection, schedule: Q01DX009 (ip), vehicle: saline) is reported as 107 % of control and the T/C (endpoint: mean survival time, dose: 37.5 mg/kg/injection, schedule: Q01DX009 (ip), vehicle: saline) is reported as 89 % of control. For the same molecule, the T/C [3] was 98 % of control.
In the case of Cc1ncc(COP(=O)(O)O)c(C=NC(Cc2ccc(O)c(O)c2)C(=O)O)c1O.O.[Cu] (stereo unspecified), the T/C (endpoint: mean survival time, dose: 12.5 mg/kg/injection, schedule: Q01DX001 (ip), vehicle: saline) is reported as 100 % of control, the T/C (endpoint: mean survival time, dose: 25.0 mg/kg/injection, schedule: Q01DX001 (ip), vehicle: saline) is reported as 93 % of control and the T/C (endpoint: mean survival time, dose: 50.0 mg/kg/injection, schedule: Q01DX001 (ip), vehicle: saline) is reported as 86 % of control.
For COc1cc(Cl)c(CC(=O)Cl)cc1OC, the T/C [3] was 105 % of control, the T/C [4] was 106 % of control and the T/C [5] was 95 % of control.
In the case of CN(Cc1ccccc1)N=Nc1ccccc1, the T/C (endpoint: mean survival time, dose: 18.75 mg/kg/injection, schedule: Q01DX009 (ip), vehicle: Klucel (hydroxypropylcellulose) (HPC)) is reported as 103 % of control, the T/C (endpoint: mean survival time, dose: 37.5 mg/kg/injection, schedule: Q01DX009 (ip), vehicle: Klucel (hydroxypropylcellulose) (HPC)) is reported as 107 % of control and the T/C [3] is reported as 108 % of control. The T/C (endpoint: mean survival time, dose: 75.0 mg/kg/injection, schedule: Q01DX009 (ip), vehicle: Klucel (hydroxypropylcellulose) (HPC)) was 113 % of control, the T/C [4] was 108 % of control and the T/C (endpoint: mean survival time, dose: 150.0 mg/kg/injection, schedule: Q01DX009 (ip), vehicle: Klucel (hydroxypropylcellulose) (HPC)) was 119 % of control. For the same molecule, the T/C [5] was 111 % of control.
In the case of C(OC[C@H]1CC[C@@H](COCC2CO2)O1)C1CO1 (stereo partly specified), the T/C (endpoint: mean survival time, dose: 65.0 mg/kg/injection, schedule: Q01DX009 (ip), vehicle: saline) is reported as 107 % of control, the T/C (endpoint: mean survival time, dose: 108.0 mg/kg/injection, schedule: Q01DX009 (ip), vehicle: saline) is reported as 112 % of control and the T/C (endpoint: mean survival time, dose: 178.0 mg/kg/injection, schedule: Q01DX001 (ip), vehicle: saline) is reported as 100 % of control. The T/C (endpoint: mean survival time, dose: 180.0 mg/kg/injection, schedule: Q01DX009 (ip), vehicle: saline) was 124 % of control, the T/C (endpoint: mean survival time, dose: 267.0 mg/kg/injection, schedule: Q01DX001 (ip), vehicle: saline) was 103 % of control and the T/C (endpoint: mean survival time, dose: 400.0 mg/kg/injection, schedule: Q01DX001 (ip), vehicle: saline) was 109 % of control. For the same molecule, the T/C (endpoint: mean survival time, dose: 600.0 mg/kg/injection, schedule: Q01DX001 (ip), vehicle: saline) was 121 % of control.
With O=C(Nc1ccccc1)O/N=C(/c1ccccc1)c1cccnc1 the T/C (endpoint: mean survival time, dose: 100.0 mg/kg/injection, schedule: Q01DX001 (ip), vehicle: other) was 104 % of control, the T/C (endpoint: mean survival time, dose: 200.0 mg/kg/injection, schedule: Q01DX001 (ip), vehicle: other) was 104 % of control and the T/C (endpoint: mean survival time, dose: 400.0 mg/kg/injection, schedule: Q01DX001 (ip), vehicle: other) was 98 % of control.
In the case of Nc1cccc(NC=O)c1, the T/C (endpoint: mean survival time, dose: 100.0 mg/kg/injection, schedule: Q04DX003 (ip), vehicle: Klucel (hydroxypropylcellulose) (HPC)) is reported as 102 % of control.
O=C(O)CCCSc1nc2ccccc2s1 was tested, and the T/C (endpoint: mean survival time, dose: 100.0 mg/kg/injection, schedule: Q01DX009 (ip), vehicle: saline with Tween-80) was 98 % of control, the T/C [1] was 95 % of control and the T/C (endpoint: mean survival time, dose: 200.0 mg/kg/injection, schedule: Q01DX009 (ip), vehicle: saline with Tween-80) was 97 % of control. The T/C (endpoint: mean survival time, dose: 200.0 mg/kg/injection, schedule: Q04DX003 (ip), vehicle: saline with Tween-80) was 98 % of control, the T/C (endpoint: mean survival time, dose: 400.0 mg/kg/injection, schedule: Q01DX009 (ip), vehicle: saline with Tween-80) was 105 % of control and the T/C [2] was 98 % of control.
